We go through 12 molecules from US20160213647A1, “COMPOSITIONS AND METHODS FOR INHIBITING VIRAL INFECTION” (priority 2015, published 2016).

pEC50, pIC50: −log10 of the molar value. Read-outs that look alike come from different tables or passages of the source.

One data set deals with HIV-1 MDR 769. The data set is described as follows: microbe, parasite or virus in culture. Conditions: Human immunodeficiency virus 1, PBMC.
For data set [1], the system named is Peripheral Blood Mononuclear Cells (PBMCs). Conditions: human.
Data set [2] in a line: in vitro. The following applies: human.
The next data set concerns HIV-1 isolate 4736_4. The data set is described as follows: microbe, parasite or virus in culture. Conditions: Human immunodeficiency virus 1, PBMC.
The next data set deals with HIV-1 isolate A17. Put plainly: microbe, parasite or virus in culture. Conditions: Human immunodeficiency virus 1, PBMC.
The subject of the next data set is HIV-2 CDC 310319. Put plainly: microbe, parasite or virus in culture. The following applies: Human immunodeficiency virus 2, PBMC.
Another data set relates to HIV-1 isolate MDR807. The data set is described as follows: microbe, parasite or virus in culture. Conditions: Human immunodeficiency virus 1, PBMC.
The next data set deals with HIV-1 isolate 1022-48. The data set is described as follows: microbe, parasite or virus in culture. The following applies: Human immunodeficiency virus 1, PBMC.
Another data set concerns HIV-1 92HT599. Put plainly: microbe, parasite or virus in culture. The following applies: Human immunodeficiency virus 1, PBMC.
Data set [3] concerns HIV-1 isolate NL4-3. Put plainly: microbe, parasite or virus in culture. Conditions: Human immunodeficiency virus 1, NL43, PBMC.
The nature of data set [4]: in vitro. The following applies: human. This is another data set of the same source.
A further data set deals with HIV-1 91US001. Put plainly: microbe, parasite or virus in culture. The following applies: Human immunodeficiency virus 1, PBMC.
The next data set deals with HIV-2 CBL20 H9. The data set is described as follows: microbe, parasite or virus in culture. Conditions: Human immunodeficiency virus 2, PBMC.
The test system of data set [5] is HIV-1 isolate NL4-3.
The next data set deals with HIV-1 isolate MDR769. Put plainly: microbe, parasite or virus in culture. The following applies: Human immunodeficiency virus 1, PBMC.
The test system of another data set is CHIKV 899 wild-type. Put plainly: Chikungunya virus-induced cell death (CPE, MTS/PMS) assay in Vero A cells. Conditions: Chikungunya virus, Vero, read-out: EC50 WT.
The nature of data set [6]: in vitro. Conditions: human. This is another data set of the same source.
The next data set relates to A/Udorn/72 (H3N2). Put plainly: microbe, parasite or virus in culture. The following applies: Influenza A virus, H3N2, HEK-293T. The class given is cell-based.
Another data set concerns A/Ca/07/09 (H1N1). Put plainly: microbe, parasite or virus in culture. The following applies: Influenza A virus, H1N1, HEK-293T. The class given is cell-based.

In the data set on human PBMCs, enfuvirtide showed a CC50 of over 2000 nM.

As a reminder, the pIC50 is the negative decadic logarithm of the IC50, by convention in mol/L. A high value points to a small IC50. `Cc1cccc(C)c1OCC(=O)N[C@@H](Cc1ccccc1)[C@@H](O)C[C@H](Cc1ccccc1)NC(=O)[C@H](C(C)C)N1CCCNC1=O` [Lopinavir] had a negative logarithm of the IC50 (pIC50) in the data set with HIV-1 MDR 769 of 6.08. The CC50 in data set [1] (7 days) is over 1000 nM. In “in vitro [2]”, the CC50 at 7 days was over 1000 nM.

In turn, `O=C1Nc2ccc(Cl)cc2[C@@](C#CC2CC2)(C(F)(F)F)O1` [Efavirenz] gave a pIC50 in the data set on HIV-1 MDR 769 of 9.18. Moreover, the CC50 (in data set [1]; in “in vitro [2]”) was over 1000 nM each time.

On to `Cc1cn([C@H]2C[C@H](N=[N+]=[N-])[C@@H](CO)O2)c(=O)[nH]c1=O` [AZT, azidothymidine], for which the IC90 in the data set on HIV-1 isolate 4736_4 is 2.57 nM; in the data set on HIV-1 isolate 4736_4 (read-out: IC50), 20.6 nM; in the data set on HIV-1 isolate A17 it was 11.6 nM; with HIV-1 isolate A17 (read-out: IC50) it was 27.4 nM; with HIV-1 isolate MDR807, 162 nM; with HIV-1 isolate MDR807 (read-out: IC50), over 1000 nM. Further, the IC90 in the data set with HIV-1 isolate 1022-48 is over 1000 nM; in the data set on HIV-1 isolate NL4-3 [3], 9.96 nM; with HIV-1 isolate NL4-3 [3] (read-out: IC50), 39.6 nM. The pIC50 with HIV-2 CDC 310319 was 8.24; with HIV-1 isolate 1022-48 it was under 6.00; with HIV-1 92HT599, 7.92; in the data set on HIV-1 91US001, 7.76; with HIV-2 CBL20 H9 it was over 10.00. Further, the CC50 (in data set [1]; in “in vitro [4]”; in the data set “in vitro [2]”) was over 1000 nM each time.

In the data set on HIV-1 isolate NL4-3 [5], Enfuvirtide gave a pIC50 of 6.39 and an IC90 of 133 nM.

Consider `Cc1nnc(C(=O)NC(C)(C)c2nc(C(=O)NCc3ccc(F)cc3)c(O)c(=O)n2C)o1` [Raltegravir, raltegravir], for which the IC90 in the data set with HIV-1 isolate 4736_4 is 74.5 nM; in the data set on HIV-1 isolate 4736_4 (read-out: IC50), over 100 nM; with HIV-1 isolate MDR807, 0.46 nM; in the data set on HIV-1 isolate MDR807 (read-out: IC50), 2.16 nM; in the data set on HIV-1 isolate NL4-3 [3], 1.3 nM; with HIV-1 isolate NL4-3 [3] (read-out: IC50), 5.18 nM. In addition, the IC90 was found to be 3.64 nM in the data set on HIV-1 isolate MDR769 and 8.95 nM in the data set with HIV-1 isolate MDR769 (read-out: IC50). For the same molecule, the CC50 in the data set “in vitro [4]” was over 100 nM.

Regarding `Cc1ccnc2c1NC(=O)c1cccnc1N2C1CC1` [Nevirapine], the pIC50 with HIV-1 isolate A17 was under 5.00. Besides, the IC90 in the data set on HIV-1 isolate A17 is over 10000 nM; in the data set with HIV-1 isolate 1022-48, 70.4 nM; with HIV-1 isolate 1022-48 (read-out: IC50), 242 nM; in the data set on HIV-1 isolate NL4-3 [3], 75.3 nM; in the data set with HIV-1 isolate NL4-3 [3] (read-out: IC50), 227 nM. Also, the CC50 in “in vitro [4]” is over 10000 nM.

One may read the pEC50 as the negative decadic logarithm of the EC50, by convention in mol/L. In the case of `NC(=O)c1nc(F)c[nH]c1=O` [T-705, favipiravir, reference compound], in the data set on CHIKV 899 wild-type, the negative logarithm of the EC50 (pEC50) was 5.13.

In the case of `CC(C)c1nc(CN(C)C(=O)N[C@H](C(=O)N[C@@H](Cc2ccccc2)C[C@H](O)[C@H](Cc2ccccc2)NC(=O)OCc2cncs2)C(C)C)cs1` [Ritonavir, ritonavir], the IC90 was 1280 nM in the data set with HIV-1 isolate MDR807; 5940 nM with HIV-1 isolate MDR807 (read-out: IC50); over 10000 nM in the data set with HIV-1 isolate 1022-48; 45.5 nM in the data set on HIV-1 isolate NL4-3 [3]; 92.3 nM in the data set with HIV-1 isolate NL4-3 [3] (read-out: IC50). The pIC50 with HIV-1 isolate 1022-48 is under 5.00.

Molecule `CC(C)Nc1cccnc1N1CCN(C(=O)c2cc3cc(NS(C)(=O)=O)ccc3[nH]2)CC1` [Delavirdine] showed a pIC50 with HIV-1 isolate A17 of under 5.70. For the same molecule, the IC90 in the data set with HIV-1 isolate A17 is over 2000 nM; with HIV-1 isolate NL4-3 [3], 30.6 nM; in the data set with HIV-1 isolate NL4-3 [3] (read-out: IC50) it was 57.6 nM. Also, in “in vitro [4]”, the CC50 was over 2000 nM.

In the case of `COc1cc2c(cc1Cc1cccc(Cl)c1F)c(=O)c(C(=O)O)cn2[C@H](CO)C(C)C` [Elvitegravir], the IC90 in the data set with HIV-1 isolate 4736_4 worked out at 81.9 nM; in the data set on HIV-1 isolate 4736_4 (read-out: IC50), 251 nM; with HIV-1 isolate NL4-3 [3], 0.52 nM; with HIV-1 isolate NL4-3 [3] (read-out: IC50), 1.25 nM. This molecule had a CC50 in “in vitro [4]” of over 1000 nM.

`NC(=O)c1ncn([C@@H]2O[C@H](CO)[C@@H](O)[C@H]2O)n1` [Ribavirin, reference compound]: the CC50 in “in vitro [6]” is over 100 µM. Further, the pEC50 in the data set with A/Udorn/72 (H3N2) was 5.28; in the data set with A/Ca/07/09 (H1N1), 4.89.
